Earlier results, collected in US5175181A, “Imidazolyl/imidazolylalkyl-N-terminal amino hydroxy” (G. D. Searle & Co., priority 1991, dated 1992).
Square brackets hold non-standard residues; d marks the D form. Peptide text beside a SMILES is read from it. * marks the point of attachment. Sta = CC(C)C[C@H](N)[C@@H](O)CC(=O)O; Isovaleryl = CC(C)CC(=O)*

Tests used:
[1] = tested on: aspartyl proteases such as pepsin, cathepsin D and renin; conditions: Umezawa et al, J. Antibiot. 1970
hog renin = conditions: after injection of hog renin into nephrectomized rats; Gross et al, Science 1971

## CC(C)CC(=O)N[C@H](C(=O)N[C@H](C(=O)N[C@@H](CC(C)C)[C@@H](O)CC(=O)N[C@@H](C)C(=O)N[C@@H](CC(C)C)[C@@H](O)CC(=O)O)C(C)C)C(C)C [pepstatin] (Isovaleryl-VV[Sta]A[Sta]-OH)
[1]
  inhibition of aspartyl proteases: inhibitor of aspartyl proteases
Hog renin
  blood pressure in vivo: reduce blood pressure
